From PMC8226839, “New Perspectives in the Antimicrobial Activity of the Amphibian Temporin B: Peptide Analogs Are Effective Inhibitors of Candida albicans Growth” (Journal of Fungi, 2021)
Like-named read-outs stand apart in the source and are kept apart here. Square brackets hold non-standard residues; d marks the D form. Peptide text beside a SMILES is read from it.

Columns and labels:
IL-1α = assay: Release of proinflammatory cytokine IL-1α from Phenion OS-REp model (ELISA); details: culture medium 24 h after 35 min exposure; 50 μg peptide per model (SDS 5% w/v)
Candida albicans [1] = assay: microbe, parasite or virus in culture
[2] = test system: sessile C. albicans cells (biofilm); assay: Survival of sessile cells of a 24 h old biofilm (CFU plating); assay type: cell-based, Candida albicans; details: 10 µg mL^−1, 24 h exposure; untreated growth control 100%
Description: (§1) At the time points 5 min, 6 h and 24 h, aliquots were taken and plated in appropriate dilutions onto PDA plates in duplicates to stimulate the growth of viable cells. The colony-forming units (CFU) were counted after incubation at 30 °C for 24 h. […] To determine the efficacy of the TB peptide analogs on sessile C. albicans cells, biofilm formation was induced by adding 100 μL of C. albicans (1 × 10^6 cells mL^−1) in 0.05 × PDB to each well of a 96-well, flat-bottom microtiter plate (Nunclon Delta, Thermo Fisher Scientific, Waltham, MA, USA) and incubating for 24 h at 30 °C. The formed biofilm was then evaluated microscopically for cell attachment and pseudo-hyphae formation before proceeding with peptide application. The serially diluted TB peptide analogs (in 0.05 × PDB) were added to the biofilm in 100 μL aliquots to reach a final volume of 200 μL per well. For the positive control, 10 µg mL^−1 Amphotericin B (Sigma-Aldrich, St. Louis, MO, USA) was used, while 0.05 × PDB was added to the growth control. After further incubation for 24 h at 30 °C, the biofilm was disrupted by vigorous pipetting, and 20 µL of the detached cells were mixed with 80 µL of 0.05 × PDB. […] The effectiveness of the TB peptide analogs to reduce biofilm formation was calculated by comparing the number of CFU at different peptide concentrations with that of the untreated growth control. […]

Candida glabrata = details: 24 h
Candida parapsilosis = details: 24 h
C. albicans cells = assay type: cell-based, Candida albicans
Description: as §1

in vitro = assay type: cell-based; details: human, 3D Phenion OS-REp reconstructed epidermis model
Description: The TB peptide analogs were tested for their skin irritation potential in vitro using the three-dimensional (3D) Phenion® open-source reconstructed epidermis model (Henkel, Düsseldorf, Germany) with slight adaptation from Groeber et al. and Mewes et al. [22, 23] and the test guidelines 439 of the Organization for Economic Cooperation and Development (OECD) [24]. In brief, the epidermal tissue models were equilibrated in 6-well plates ([…] , Hamburg, Germany) with 1.5 mL of Phenion® OS_REp air-liquid interface (ALI) medium (Henkel, Düsseldorf, Germany) for 24 h at 37 °C, 5% (v/v) CO2. Then, the medium was replaced by fresh medium and 25 μL Dulbecco's phosphate-buffered saline (D-PBS) containing 50 μg of the peptide, respectively, was dispensed directly on top of the models and spread gently over the surface with sterile glass applicators. […] All samples and controls were prepared in triplicates. After incubation at 25 °C for 35 min, each model was thoroughly dipped six times in 1 L of D-PBS. […] From each tissue sample, 200 μL of the formazan extraction solution were transferred in duplicates to a 96-well microtiter plate and the optical density was measured in a multimode plate reader (FLUOstar Omega, BMG Labtech, Ortenberg, Germany) at a wavelength of 550 nm. The relative metabolic activity was calculated from two replicates per tissue and three tissues per assay.

Candida albicans [3] = details: 24 h
[4] = test system: Candida albicans 27700 (fluconazole-resistant clinical isolate); details: 27700 (fluconazole-resistant clinical isolate, 24 h)
Staphylococcus aureus = details: 24 h
C. albicans = assay: Broth microdilution, impact of protease inactivation conditions (growth %); assay type: cell-based, Candida albicans; details: 0.125 µM protease alone + 100 °C, 15 min

Molecule	IC90 (Candida glabrata)	IC90 (Candida parapsilosis)	viability at 35 min, 2000 µg/mL (in vitro)	IC90 (Candida albicans [3])	IC90 [4]	IC90 (Staphylococcus aureus)	other results
CCCCCCCCCCCCOS(=O)(=O)[O-].[Na+] [5% SDS, sodium dodecyl sulfate]	–	–	–	–	–	–	IL-1α (IL-1α): 199.2 ± 47.7 pg/mL
C[C@@H]1[C@H](O)[C@@H](C)/C=C/C=C/C=C/C=C/C=C/C=C/C=C/[C@H](O[C@@H]2O[C@H](C)[C@@H](O)[C@H](N)[C@@H]2O)C[C@@H]2O[C@](O)(C[C@@H](O)C[C@@H](O)[C@H](O)CC[C@@H](O)C[C@@H](O)CC(=O)O[C@H]1C)C[C@H](O)[C@H]2C(=O)O [Amphotericin B]	–	–	–	–	–	–	IC90 (Candida albicans [1]): 0.055 µg/mL; IC90 (Candida albicans [1]; 24 h): 0.06 µM; CFU [%] [2]: 0 ± 0 %
CC[C@H](C)[C@H](NC(=O)[C@@H]1CCCN1C(=O)[C@H](CC(C)C)NC(=O)[C@H](CC(C)C)NC(=O)[C@@H](CCCCN)NC(=O)[C@H](N)CCCCN)C(=O)N[C@H](C(=O)N[C@H](CCCCN)C(=O)N[C@@H](CC(N)=O)C(=O)N[C@@H](CC(C)C)C(=O)N[C@@H](CC(C)C)C(=O)N[C@H](CCCCN)C(=O)N[C@@H](CO)C(=O)N[C@@H](CC(C)C)C(=O)N[C@@H](CC(C)C)C(N)=O)C(C)C [D-Lys_TB_KKG6K] (H-[dK][dK]LLPIV[dK]NLL[dK]SLL-NH2)	1.8 µM	1.8 µM	91.4 ± 2.9%	1.8 µM	1.8 µM	14.4 µM	killing (CFU) (C. albicans cells; 24 h): 100%
CC[C@H](C)[C@H](NC(=O)[C@@H]1CCCN1C(=O)[C@H](CC(C)C)NC(=O)[C@H](CC(C)C)NC(=O)[C@H](CCCCN)NC(=O)[C@@H](N)CCCCN)C(=O)N[C@H](C(=O)N[C@@H](CCCCN)C(=O)N[C@@H](CC(N)=O)C(=O)N[C@@H](CC(C)C)C(=O)N[C@@H](CC(C)C)C(=O)N[C@@H](CCCCN)C(=O)N[C@@H](CO)C(=O)N[C@@H](CC(C)C)C(=O)N[C@@H](CC(C)C)C(N)=O)C(C)C [TB_KKG6K] (H-KKLLPIVKNLLKSLL-NH2)	1.8 µM	1.8 µM	94.2 ± 2.9%	1.8 µM	1.8 µM	3.6 µM	killing (CFU) (C. albicans cells; 6 h): 100%
CC[C@H](C)[C@H](NC(=O)[C@@H]1CCCN1C(=O)[C@H](CC(C)C)NC(=O)[C@H](CC(C)C)NC(=O)[C@H](CCCCN)NC(=O)[C@H](CCCCN)NC(=O)[C@H](CCCCN)NC(=O)[C@@H](N)CCCCN)C(=O)N[C@H](C(=O)N[C@@H](CC(N)=O)C(=O)N[C@@H](CC(C)C)C(=O)N[C@@H](CC(C)C)C(=O)N[C@@H](CO)C(=O)N[C@@H](CC(C)C)C(=O)N[C@@H](CC(C)C)C(N)=O)C(C)C [TB_KKG6K^scrambled] (H-KKKKLLPIVNLLSLL-NH2; N-terminus assumed)	–	–	–	1.8 µM	–	7.2 µM	–
Chymotrypsin	–	–	–	–	–	–	Growth [%] (C. albicans): 76.1 ± 6.9%
